Data reported in patent publication US9511052B2, “Mineralocorticoid receptor antagonists” (Merck Sharp & Dohme Corp., priority 2012, dated 2016).

biological target: T1, full-length human Mineralocorticoid Receptor (MR) (Homo sapiens, UniProt P08235); experiment: human MR NH Pro assay (PathHunter Protein:Protein interaction assay), MR antagonism; format: cell-based; conditions: IP = inflection point of the dose-response curve; CHO-K1 cells overexpressing human MR, aldosterone about 0.3 nM to about 1 nM, 6 hours at 37° C.
T1 construct: host or cells: PathHunter CHO-K1 MR cells
T1 sequence (P08235 1-984): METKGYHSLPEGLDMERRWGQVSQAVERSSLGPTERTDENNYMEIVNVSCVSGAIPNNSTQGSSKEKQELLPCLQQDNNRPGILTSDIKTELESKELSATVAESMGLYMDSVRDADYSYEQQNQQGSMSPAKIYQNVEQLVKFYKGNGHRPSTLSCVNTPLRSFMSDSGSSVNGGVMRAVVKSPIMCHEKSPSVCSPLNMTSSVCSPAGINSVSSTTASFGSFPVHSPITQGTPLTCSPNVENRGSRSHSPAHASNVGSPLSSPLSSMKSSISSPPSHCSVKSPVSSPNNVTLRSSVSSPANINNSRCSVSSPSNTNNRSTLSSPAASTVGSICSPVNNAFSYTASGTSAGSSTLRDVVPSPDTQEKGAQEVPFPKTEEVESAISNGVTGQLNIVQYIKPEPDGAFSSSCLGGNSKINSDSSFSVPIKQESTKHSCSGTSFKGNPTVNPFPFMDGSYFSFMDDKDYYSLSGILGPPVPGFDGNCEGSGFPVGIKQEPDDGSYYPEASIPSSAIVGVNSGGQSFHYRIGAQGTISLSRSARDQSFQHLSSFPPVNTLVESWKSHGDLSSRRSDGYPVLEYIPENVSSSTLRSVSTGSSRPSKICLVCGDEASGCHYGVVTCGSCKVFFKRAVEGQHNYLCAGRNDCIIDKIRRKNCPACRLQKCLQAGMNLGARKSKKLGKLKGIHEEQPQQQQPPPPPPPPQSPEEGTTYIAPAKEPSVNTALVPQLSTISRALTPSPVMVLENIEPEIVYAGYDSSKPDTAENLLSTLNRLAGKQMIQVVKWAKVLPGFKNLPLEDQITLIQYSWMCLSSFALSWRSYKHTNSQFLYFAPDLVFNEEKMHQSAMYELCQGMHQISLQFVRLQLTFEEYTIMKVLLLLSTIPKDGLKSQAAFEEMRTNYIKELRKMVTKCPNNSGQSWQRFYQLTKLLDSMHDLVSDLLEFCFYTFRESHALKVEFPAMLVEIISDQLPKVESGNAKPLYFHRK
Excerpt: The activity of the compounds of the present invention regarding mineralocorticoid receptor antagonism can be evaluated using the following assay.
Assessment of MR Potency in HMR NH Pro Assay
The human MR NH Pro assay is a commercially available PathHunter™ Protein:Protein interaction assay (DiscoveRx; http://www.discoverx.com/nhrs/prod-nhrs.php) that measures the ability of compounds to antagonize full-length human Mineralocorticoid Receptor (MR) binding to a coactivator peptide.
Stock solution was prepared at 10 μM in DMSO and stored at −20° C. for assay, dilute in assay media to 1.8 or 6 nM (6× of final concentration=about 0.3 nM to about 1.0 nM)
5. Cell line: PathHunter CHO-K1 MR cells Cat #93-0456C2, Lot No: 09B0913, from operation liquid nitrogen stock.
6. Control Antagonist: Spironolactone: Sigma #S-3378 and Eplerenone Sigma #107724-20-9 (10 mM stock concentration also prepared in DMSO and stored at −20° C.).
1. Cells are grown in F12+FBS+Hygromycin+pen/strep+Genetin
2. Cells are collected with 0.05% trypsin and the cell suspension is spun and resuspended in a volume of F12+1.5% CD-FBS and counted.
3. The cells concentration was adjusted to 4×10^5 cells/mL.
4. Cells were (25 μL/well) added to the wells of a 384 well plate.
5. The plate was then incubated at 37° C. over night in a humidified incubator with 5% CO2.
6. Test compounds were titrated starting at 4.4 mM, 10-point titration in 1:3 dilution.
Protocol for 384 well plate format: 6 hr treatment:
1. 10K exponentially growing cells/well (25 μL) were resuspended in assay media and plated into each well using the Multidrop (Thermo Electron) (use white wall, clear bottom assay plates (Costar #3570) and incubated overnight at 37° C., 5% CO2.
2. 0.25 μL 120× test compound (final DMSO concentration should be <1%) was added to each well n=2, 10 point titrations starting at 36.7 μM final concentration.
4. 5 μL of assay media was added to all wells in column 23 and 24.
5. Cells were then incubated for 6 hrs at 37° C., 5% CO2.
6. 15 μL 3× DiscoveRx detection reagent was then added to each well.
7. Plates were incubated for 1 hour at room temperature in the dark.
8. Plates were read on Envision (PerkinElmer) luminesence plate reader and analyzed using ADA.

IC50 [nM]	Compound
21	CCC(O)C(CC)(c1ccc(C(F)(F)F)cc1)n1ncc2c(NS(C)(=O)=O)cc(F)cc21 (single isomer, unassigned) [Compound 17, N-(6-fluoro-1-(4-hydroxy-3-(4-(trifluoromethyl)phenyl)hexan-3-yl)-1H-indazol-4-yl)methanesulfonamide]
28	CCC(c1ccc(C(F)(F)F)cc1)(C(O)C(F)F)n1ncc2c(NS(C)(=O)=O)cc(F)cc21 (single isomer, unassigned) [Compound 52, N-(1-(1,1-difluoro-2-hydroxy-3-(4-(trifluoromethyl)phenyl)pentan-3-yl)-6-fluoro-1H-indazol-4-l) methanesulfonamide]
10	CCC(O)C(CC(F)F)(c1ccc(C(F)(F)F)cc1)n1ncc2c(NS(=O)(=O)CC)cccc21 (single isomer, unassigned) [Compound 56, N-(1-(1,1-difluoro-4-hydroxy-3-(4-(trifluoromethyl)phenyl)hexan-3-yl)-1H-indazol-4-yl)ethanesulfonamide]
4	CCC(c1ccc(C(F)(F)F)cc1)(C(O)C(F)F)n1ncc2c(NS(=O)(=O)CC)cccc21 (single isomer, unassigned) [Compound 50, N-(1-(1,1-difluoro-2-hydroxy-3-(4-(trifluoromethyl)phenyl)pentan-3-yl)-1H-indazol-4-yl)ethanesulfonamide]
274	CS(=O)(=O)Nc1cccc2c1cnn2C(CC(F)F)(C(N)=O)c1ccc(C(F)(F)F)cc1 (single isomer, unassigned) [Compound 45, 4,4-difluoro-2-(4-(methylsulfonamido)-1H-indazol-1-yl)-2-(4-(trifluoromethyl)phenyl)butanamide]
3	CCC(O)C(CC)(c1ccc(Br)cc1)n1ncc2c(NS(C)(=O)=O)cccc21 (single isomer, unassigned) [Compound 6, N-(1-(3-(4-bromophenyl)-4-hydroxyhexan-3-yl)-1H-indazol-4-yl)methanesulfonamide]
3810	CCC(c1ccc(S(F)(F)(F)(F)F)cc1)(C(C)O)n1ncc2c(NS(C)(=O)=O)cccc21 (single isomer, unassigned) [Compound 22, N-(1-{2-hydroxy-3-[4-(pentafluoro-λ^6-sulfanyl)phenyl]pentan-3-yl}-1H-indazol-4-yl)methanesulfonamide]
733	CCC(c1ccc(Br)cc1)(C(C)O)n1ncc2c(NS(C)(=O)=O)cccc21 (single isomer, unassigned) [Compound 3, N-(1-(3-(4-bromophenyl)-2-hydroxypentan-3-yl)-1H-indazol-4-yl) methanesulfonamide]
543	CCC(O)C(CC(F)F)(c1ccc(C(F)(F)F)cc1)n1ncc2c(NS(C)(=O)=O)cccc21 (single isomer, unassigned) [Compound 41, N-(1-(1,1-difluoro-4-hydroxy-3-(4-(trifluoromethyl)phenyl)hexan-3-yl)-1H-indazol-4-yl)methanesulfonamide]
43	CCS(=O)(=O)Nc1cccc2c1cnn2C(CC(F)F)(c1ccc(C(F)(F)F)cc1)C(C)O (single isomer, unassigned) [Compound 57, N-(1-(1,1-difluoro-4-hydroxy-3-(4-(trifluoromethyl)phenyl)pentan-3-yl)-1H-indazol-4-yl)ethanesulfonamide]
27	CCC(c1ccc(C(F)(F)F)cc1)(C(C)O)n1ncc2c(NS(C)(=O)=O)cc(F)cc21 (single isomer, unassigned) [Compound 32, N-(6-fluoro-1-(2-hydroxy-3-(4-(trifluoromethyl)phenyl)pentan-3-yl)-1H-indazol-4-yl)methanesulfonamide]
95	CC(O)C(CC(F)F)(c1ccc(C(F)(F)F)cc1)n1ncc2c(NS(C)(=O)=O)cccc21 (single isomer, unassigned) [Compound 36, N-(1-(1,1-difluoro-4-hydroxy-3-(4-(trifluoromethyl)phenyl)pentan-3-yl)-1H-indazol-4-yl)methanesulfonamide]
13	CCC(c1ccc(C(F)(F)F)cc1)(C(O)C(F)F)n1ncc2c(NS(C)(=O)=O)cc(F)cc21 (single isomer, unassigned) [Compound 51, N-(1-(1,1-difluoro-2-hydroxy-3-(4-(trifluoromethyl)phenyl)pentan-3-yl)-6-fluoro-1H-indazol-4-yl) methanesulfonamide]
1130	CCC(O)C(CC)(c1ccc(S(F)(F)(F)(F)F)cc1)n1ncc2c(NS(C)(=O)=O)cccc21 (single isomer, unassigned) [Compound 26, N-(1-{4-hydroxy-3-[4-(pentafluoro-λ^6-sulfanyl)phenyl]hexan-3-yl}-1H-indazol-4-yl)methanesulfonamide]
728	CCC(c1ccc(Br)cc1)(C(C)O)n1ncc2c(NS(C)(=O)=O)cccc21 (single isomer, unassigned) [Compound 4, N-(1-(3-(4-bromophenyl)-2-hydroxypentan-3-yl)-1H-indazol-4-yl) methanesulfonamide]
539	CS(=O)(=O)Nc1cccc2c1cnn2C(CO)(CC(F)F)c1ccc(C(F)(F)F)cc1 (single isomer, unassigned) [Compound 44, N-(1-(4,4-difluoro-l-hydroxy-2-(4-(trifluoromethyl)phenyl)butan-2-yl)-1H-indazol-4-yl)methanesulfonamide]
23	CCC(O)C(CC(F)F)(c1ccc(C(F)(F)F)cc1)n1ncc2c(NS(C)(=O)=O)cccc21 (single isomer, unassigned) [Compound 39, N-(1-(1,1-difluoro-4-hydroxy-3-(4-(trifluoromethyl)phenyl)hexan-3-yl)-1H-indazol-4-yl)methanesulfonamide]
48	CCC(O)C(CC)(c1ccc(C#N)cc1)n1ncc2c(NS(C)(=O)=O)cccc21 (single isomer, unassigned) [Compound 16, N-(1-(3-(4-cyanophenyl)-4-hydroxyhexan-3-yl)-1H-indazol-4-yl)methanesulfonamide]
11	CCC(c1ccc(C(F)(F)F)cc1)(C(O)C(F)F)n1ncc2c(NS(=O)(=O)CC)cc(F)cc21 (single isomer, unassigned) [Compound 53, N-(1-(1,1-difluoro-2-hydroxy-3-(4-(trifluoromethyl)phenyl)pentan-3-yl)-6-fluoro-1H-indazol-4-yl)ethanesulfonamide]
139	CCC(C(N)=O)(c1ccc(C(F)(F)F)cc1)n1ncc2c(NS(C)(=O)=O)cccc21 (single isomer, unassigned) [Compound 12, 2-(4-(methylsulfonamido)-1H-indazol-1-yl)-2-(4-(trifluoromethyl)phenyl) butanamide]
38	CCS(=O)(=O)Nc1cccc2c1cnn2C(CC(F)F)(c1ccc(C(F)(F)F)cc1)C(C)O (single isomer, unassigned) [Compound 58, N-(1-(1,1-difluoro-4-hydroxy-3-(4-(trifluoromethyl)phenyl)pentan-3-yl)-1H-indazol-4-yl)ethanesulfonamide]
